{"source": "patent US12391701B2", "about": "“Chromene-based compounds, methods and uses thereof” (University of Minho, priority 2019, dated 2025)", "key": {"[1]": {"test_system": "glioma cell line GAMG", "test": "Cell viability MTS assay, GAMG", "format": "cell-based", "details": "Homo sapiens, 72 hours", "description": "(§1) In an embodiment, the antiproliferative activity of compounds MC408, MC409, MC421 and MC406 was further determined against glioma cell lines (U87, GAMG and GL18) and acute leukemia cell lines (HL-60, KG-1 and Jurkat). This was done in order to evaluate if the compounds presented an equally interesting anticancer profile in other cancer cell models. Cell viability was determined using the MTS assay, after exposure of the cells to the respective compounds for 72 hours at appropriate concentration ranges to determine the respective IC50 values.\nIn an embodiment, three human breast cancer cell lines Hs578T, MDA-MB-468 and MCF-7, and a normal breast cell line MCF-10A, were obtained from ATCC (American Type Culture Collection). The cancer cell lines were cultured in Dulbecco's modified Eagle medium, 4.5 g/l glucose (DMEM, Gibco) supplemented with 10% heating inactivated Fetal Bovine Serum (FBS, Gibco) and 1% antibiotic solution (Penicillin-Streptomycin, Gibco). The normal cell line was cultured in Dulbecco's Modified Eagle Medium: Nutrient Mixture F-12 (DMEM/F12, Gibco) supplemented with 5% heating inactivated FBS (Gibco), 1% antibiotic solution (Penicillin-Streptomycin, Gibco), 1% steroid hormone (Hydrocortisone, Sigma-Aldrich), 0.1% peptide hormone (Insulin, Sigma-Aldrich) and 0.01% protein complex (Cholera Toxin, Gibco). Two distinct human acute myeloid leukemia (AML) cell lines, HL-60 (FAB M2) and KG-1 (erythroleukemia-FAB M6), and one human lymphoblastic leukemia (ALL) cell line, Jurkat (T cell type), were also used. These three cell lines were obtained from German Collection of Microorganisms and Cell cultures (DMSZ®, Deutsche Sammlung von Mikroorganismen and Zellkulturen in German). Cells were cultured in RPMI 1640 medium (Biochrom®-Merck Millipore) supplemented with 10% heating inactivated FBS (Biochrom®-Merck Millipore) and 1% antibiotic/antimitotic mixture (Invitrogen®). Three human glioblastoma (GBM) cell line models, two established and commercially available cell lines (U87MG and GAMG, kind gift from Rui M. Reis) and one primary GBM culture (GLIB) were also used. […]"}, "[2]": {"test_system": "glioma cell line GL18", "test": "Cell viability MTS assay, GL18", "format": "cell-based", "details": "Homo sapiens, 72 hours", "description": "as §1\n(§2) In an embodiment, three human breast cancer cell lines Hs578T, MDA-MB-468 and MCF-7, and a normal breast cell line MCF-10A, were obtained from ATCC (American Type Culture Collection). The cancer cell lines were cultured in Dulbecco's modified Eagle medium, 4.5 g/l glucose (DMEM, Gibco) supplemented with 10% heating inactivated Fetal Bovine Serum (FBS, Gibco) and 1% antibiotic solution (Penicillin-Streptomycin, Gibco). The normal cell line was cultured in Dulbecco's Modified Eagle Medium: Nutrient Mixture F-12 (DMEM/F12, Gibco) supplemented with 5% heating inactivated FBS (Gibco), 1% antibiotic solution (Penicillin-Streptomycin, Gibco), 1% steroid hormone (Hydrocortisone, Sigma-Aldrich), 0.1% peptide hormone (Insulin, Sigma-Aldrich) and 0.01% protein complex (Cholera Toxin, Gibco). Two distinct human acute myeloid leukemia (AML) cell lines, HL-60 (FAB M2) and KG-1 (erythroleukemia-FAB M6), and one human lymphoblastic leukemia (ALL) cell line, Jurkat (T cell type), were also used. These three cell lines were obtained from German Collection of Microorganisms and Cell cultures (DMSZ®, Deutsche Sammlung von Mikroorganismen and Zellkulturen in German). Cells were cultured in RPMI 1640 medium (Biochrom®-Merck Millipore) supplemented with 10% heating inactivated FBS (Biochrom®-Merck Millipore) and 1% antibiotic/antimitotic mixture (Invitrogen®). Three human glioblastoma (GBM) cell line models, two established and commercially available cell lines (U87MG and GAMG, kind gift from Rui M. Reis) and one primary GBM culture (GLIB) were also used. GBM cells were cultures in DMEM (Biochrom-Merck Millipore), all supplemented with 10% FBS. The Renal cell carcinoma cell lines A498, 786-O, Caki-2 and HK2 were obtained from ATCC. The cancer cell line A498 was cultured in MEM medium (Biochrom®-Merck Millipore), 786-O was cultured in RPMI 1640 medium (Biochrom®-Merck Millipore), Caki-2 was cultured in Mc Coys medium (Biochrom®-Merck Millipore) and HK2 was cultured in RPMI 1640 medium (Biochrom®-Merck Millipore). All the media were supplemented with 10% heat inactivated FBS (Biochrom®-Merck Millipore) and 1% antibiotic/antimitotic mixture (Invitrogen®). All cells were grown in a humidified incubator at 37° C. and 5% CO2. […]"}, "[3]": {"test_system": "MCF-7 cells", "test": "Wound-healing assay, MCF-7 cell migration", "format": "cell-based, human", "details": "for cell migration less than the control: after 72 hours of treatment, IC50 (and ½IC50) concentration", "description": "In an embodiment, the effect of the four selected compounds (MC408, MC409, MC406 and MC421) was further evaluated on cell migration (FIG. 1). MCF-7 cells were treated with the respective IC50 and half of the IC50 values for 72 hours and the wound-healing assay was performed. Half of the IC50 concentration was used for each compound to evaluate concentration-dependent effects. […] Results are presented as mean±SD of at least three independent experiments, *p<0.05; **p<0.01; ***p<0.001; ****p<0.0001 compared to control (DMSO, 0.5%).\nIn an embodiment, cell migration was assessed by the wound-healing assay that mimics the process of cell migration during wound-healing in vivo. This method is based on making a scratch, simulating a wound in a cell monolayer, capturing the images at the beginning and regular intervals during cell migration process to close the wound and comparing the images to quantify the cell migration rate. MCF-7 and Caki-2 cells were plated in 6-well plates at a density of 9.0×10^5 and 3.0×10^5 per 2 mL, respectively, and grown overnight at 37° C. in a 5% CO2 humidified atmosphere. A 200 μL pipette tip was used to make two scratches in a layer of confluent cells. Cells were gently washed once with 500 μL of PBS. MCF-7 cells were treated with compounds at the respective IC50, ½IC50, or 0.5% DMSO (control), for 72 hours. At 0, 12, 24, 48 and 72 hours, specific wound sites (four positions for each wound) were photographed. […] Images were captured at 100× magnification using an Olympus IX51 inverted microscope equipped with an Olympus DP20 Digital Camera System. Assessment of five migration distances was performed using BeWound 1.7.1 and the percentage of cell migration normalized to the control was plotted using GraphPad Prism 6 software. Three independent experiments were performed for each compound. The significance of the difference between different groups was determined with Student t-test."}, "[4]": {"test_system": "acute leukemia cell line Jurkat", "test": "Cell viability MTS assay, Jurkat", "format": "cell-based", "details": "Homo sapiens, 72 hours", "description": "as §1, §2"}}}
{"smiles": "COc1cccc2c1Oc1nc(-c3ccc(F)cc3)[nH]c1C2C1c2cccc(OC)c2Oc2nc(-c3ccc(F)cc3)[nH]c21", "note": "(stereo not shown) [MC406, 2,2′-bis(4-fluorophenyl)-5,5′-dimethoxy-1,1,9,9′-tetrahydro-9,9′-bichromeno[2,3-]imidazoles]", "values": [{"measurement": "IC50", "setting": "[1]", "result": 0.22, "unit": "µM"}, {"measurement": "IC50", "setting": "[2]", "result": 0.3, "unit": "µM"}, {"measurement": "cell migration less than the control", "setting": "[3]", "result": 20, "unit": "%"}, {"measurement": "IC50", "setting": "[4]", "result": 0.12, "unit": "µM"}]}
{"smiles": "COc1cccc2c1Oc1nc(-c3ccc(Br)cc3)[nH]c1C2", "note": "[MC408, 2-(4-bromophenyl)-5-methoxy-3,9-dihydrochromeno[2,3-d]imidazoles]", "values": [{"measurement": "IC50", "setting": "[2]", "result": 1.6, "unit": "µM"}, {"measurement": "cell migration less than the control", "setting": "[3]", "result": 20, "unit": "%"}, {"measurement": "IC50", "setting": "[4]", "result": 0.19, "unit": "µM"}]}
{"smiles": "COc1cccc2c1Oc1nc(-c3ccc(F)cc3)[nH]c1C2", "note": "[MC409, 2-(4-fluorophenyl)-5-methoxy-3,9-dihydrochromeno[2,3-d]imidazoles]", "values": [{"measurement": "IC50", "setting": "[1]", "result": 0.43, "unit": "µM"}, {"measurement": "IC50", "setting": "[2]", "result": 0.6, "unit": "µM"}, {"measurement": "decrease of percentage of cell migration relative to control", "setting": "[3]; after 12 hours, IC50 and ½IC50, control 0.5% DMSO", "result": "about 40%"}, {"measurement": "cell migration less than the control", "setting": "[3]", "result": "about 12%"}, {"measurement": "IC50", "setting": "[4]", "result": 0.37, "unit": "µM"}]}
{"smiles": "COc1cccc2c1Oc1nc(-c3ccc(Br)cc3)[nH]c1C2C1c2cccc(OC)c2Oc2nc(-c3ccc(Br)cc3)[nH]c21", "note": "(stereo not shown) [MC421, 2,2′-bis(4-bromophenyl)-5,5′-dimethoxy-1,1,9,9′-tetrahydro-9,9′-bichromeno[2,3-]imidazoles]", "values": [{"measurement": "IC50", "setting": "[1]", "result": 0.079, "unit": "µM"}, {"measurement": "IC50", "setting": "[2]", "result": 0.2, "unit": "µM"}, {"measurement": "cell migration less than the control", "setting": "[3]", "result": 13, "unit": "%"}, {"measurement": "IC50", "setting": "[4]", "result": 0.18, "unit": "µM"}]}
